# From patent EP4678639A1, “SALT OF BENZIMIDAZOLE DERIVATIVE” (JW Pharmaceutical Corporation, priority 2023, dated 2024)
# Structures can show the parent of a compound that is named as a salt.
# Key:
# [1] = Photostability test, ultraviolet light (200 W·hr/m2) exposure
# Protocol: (§1) A photostability comparative test was conducted on each of the above-mentioned prepared tegoprazan acid addition salts. The test was conducted by exposing the sample to light with an energy of 200 W hr/m^2 of ultraviolet light and 1.2 Mlux hr of visible light in accordance with The International Council for Harmonisation of Technical Requirements for Pharmaceuticals for Human Use (ICH) guideline, with the samples packaged in a single PE bag and spread thinly enough to ensure exposure to the light source, taking humidity stability into consideration. The purity of the acid addition salts and the change in the amount of degradants at the initial time point and after exposure to ultraviolet light or visible light were measured by HPLC.
# [2] = Photostability test, visible light (1.2 Mlux·hr) exposure
# Protocol: as §1
# [3] = Solid-state stress stability test (humidity 90 % RH)
# Protocol: (§2) Operation and Calculation: The blank solution, standard solution, and test solution were sequentially tested under the instrument operating conditions according to the liquid chromatography method in the General Test Methods of the 12th Edition of the Korean Pharmacopoeia, and the amount of related substances was calculated using the following equation. Amount of each related; substance (%) = (AT)/(AS) × (CS)/(CT) × (Molecular weight; of the sample)/(Molecular weight; of the standard; product) × P × (1)/(RR; F) [formula] AT = Area of each related substance peak obtained from the test solution AS = Area of the tegoprazan peak obtained from the standard solution CS = Concentration of standard solution (mg/mL) CT = Concentration of test solution (mg/mL) P = Purity/Assay/Potency (%) of standard product RRF = Relative response factor (1.0)
# (§3) A solid-state stability comparative test was conducted on each of the above-mentioned prepared tegoprazan acid addition salts. The stability comparative test was conducted for 1 month under the conditions shown in Table 6 below in accordance with The International Council for Harmonisation of Technical Requirements for Pharmaceuticals for Human Use (ICH) guideline, and the purity of the acid addition salt, total related substances, and the content of degradants were measured by HPLC at the initial time point and after 1 month. Total related substances and degradants were measured according to the related substance test method (HPLC).
# 3) Stress Stability (humidity 90 % RH)
# [4] = Stability test by formulation (tablets and orally disintegrating tablets, 60 °C or 90 % RH); type: physicochemical; conditions: tablets and orally disintegrating tablets prepared with the named salt, versus reference drug
# Protocol: The amount of total related substances under stress storage conditions (temperature/humidity) was measured using liquid chromatography (HPLC) using an Infinity 1260 (Agilent) equipment. The analysis conditions are as follows.
# To minimize the influence of additives, each test formulation was selected with the same additives as the reference drug (K-CAB tablets 50 mg, K-CAB orally disintegrating tablets 50 mg) disclosed in the Ministry of Food and Drug Safety Pharmaceutical Integrated Information System, and to minimize differences due to the granule manufacturing process, the formulation was prepared using the simple mixing (direct compression) method. Each formulation was as shown in Tables 16 and 17 below, and the stability conditions were conducted for each formulation under the storage conditions of 60 °C, which is a stress temperature condition, and 90 % RH, which is a stress humidity condition, respectively.
# Stability tests were conducted under stress storage conditions (temperature/humidity) for each formulation. The results of measuring the amount of total related substances after storage under stress conditions for 1 week or 3 weeks are shown in FIG. 18 and FIG. 19.
# [5] = Liquid stability comparative test (20 mg/mL in purified water, 40 °C, 24 hours, HPLC); type: physicochemical
# Protocol: The analysis conditions are as follows.
# Each sample was dissolved in purified water to prepare a solution with a concentration of 20 mg/mL, stored at an external temperature of 40 °C, and analyzed by HPLC at the initial time point and after 24 hours to measure purity, and the change in the generated degradant (Formula 4) was measured. The analysis of total related substances and degradants was performed by taking a liquid from a solution prepared at a concentration of 20 mg/mL, diluting it to a concentration of 4 mg/mL with the diluent of the related substance test method (HPLC), and measuring it as a test solution, and analyzing it according to the related substance test method (HPLC).
# [6] = Solid-state stress stability test (temperature 60 °C)
# Protocol: as §2, §3
# 2) Stress Stability Test (temperature 60 °C)
# [7] = Raw material stability test versus tegoprazan freebase (60 °C or 90 % RH); type: physicochemical
# [8] = Solid-state accelerated stability test (40 ± 2 °C/RH 75 ± 5 %)
# [9] = Table 10, UV 200 W·hr/m2, PE bag
# [10] = Table 11 under heading Visible Light (1.2 Mlux-hr) Exposure Test
# [11] = 40 ± 2 °C / RH 75 ± 5 %, 1 month
smiles,measurement,setting,value
Cc1nc2c(O[C@H]3CCOc4cc(F)cc(F)c43)cc(C(=O)N(C)C)cc2[nH]1 [Methanesulfonate Salt (Crystalline Form)],After Ultraviolet Light Exposure (200 W hr/m2)(%) Degradant,[1]; [9],0.168%
same,After Ultraviolet Light Exposure (200 W hr/m2)(%) Total Related substances,[1]; [9],0.339%
same,Change (%) Degradant,"[1]; Table 10, after UV exposure vs initial",0.046%
same,Initial (%) Degradant,"[1]; Table 10, initial",0.122%
same,Initial (%) Total Related substances,"[1]; Table 10, initial",0.265%
same,Change in Quality (%) Light (Ultraviolet) Degradant,[1]; Table 12 summary,0.046%
same,Change in Quality (%) Light (Ultraviolet) Purity,[1]; Table 12 summary,0.074%
same,Change (%) Degradant,"[2]; Table 11, after exposure vs initial",0.086%
same,Initial (%) Degradant,"[2]; Table 11, initial",0.122%
same,Initial (%) Total Related substances,"[2]; Table 11, initial",0.265%
same,After (%) Degradant,[2]; [10],0.208%
same,After (%) Total Related substances,[2]; [10],0.412%
same,Change in Quality (%) Light (Visible) Degradant,[2]; Table 12 summary,0.086%
same,absorb moisture and deliquesce / melted,[3]; 90 % RH,absorb moisture and deliquesce
same,Remarks,"[3]; 90 % RH, 1 month, state of the solid",Melted
same,Initial (%) Degradant,"[3]; Table 9, initial",0.122%
same,Initial (%) Total Related substances,"[3]; Table 9, initial",0.265%
same,Change in Quality (%) 90 % RH (4 weeks) Degradant,[3]; Table 12 summary,Melted
same,Change in Quality (%) 90 % RH (4 weeks) Purity,[3]; Table 12 summary,Melted
same,amount of total related substances generated (FIGS. 18 and 19),"[4]; 60 °C or 90 % RH, 1 or 3 weeks",significantly increased
same,degree of weight gain (FIG. 17),"[4]; 90 % RH, 3 weeks",greater
same,After 24 hours Purity (%),"[5]; 20 mg/mL in purified water, 40 °C, 24 hours",99.47%
same,Initial Purity (%),"[5]; 20 mg/mL in purified water, initial time point",99.95%
same,After 24 hours Degradant (%),"[5]; degradant of Formula 4, 20 mg/mL in purified water, 40 °C, 24 hours",0.446%
same,Initial Degradant (%),"[5]; degradant of Formula 4, 20 mg/mL in purified water, initial time point",0.028%
same,Amount of Change Degradant (%),[5]; initial vs after 24 hours at 40 °C,0.42%
same,increase in degradants (degradant of Formula 4),"[5]; liquid stability, 40 °C, 24 hours",≤ 0.5%
same,total related substances increased after 1 month,[6]; 60 °C,≥ 5.0%
same,After 1 Month (%) Degradant,"[6]; 60 °C, 1 month",4.167%
same,After 1 Month (%) Total Related substances,"[6]; 60 °C, 1 month",5.408%
same,"change in appearance, change in the color of the solid","[6]; 60 °C, 1 month",change in appearance
same,Change (%) Degradant,"[6]; 60 °C, 1 month vs initial",4.045%
same,Remarks,"[6]; 60 °C, 1 month, appearance",Discolorat ion
same,Initial (%) Degradant,"[6]; Table 8, initial",0.122%
same,Initial (%) Total Related substances,"[6]; Table 8, initial",0.265%
same,Change in Quality (%) 60 °C (4 weeks) Degradant,[6]; Table 12 summary,4.045%
same,Change in Quality (%) 60 °C (4 weeks) Purity,[6]; Table 12 summary,-5.143%
same,60 °C (4 weeks) appearance remark,"[6]; Table 12 summary, remark in brackets under the 60 °C columns",(Discoloration)
same,"change in appearance, 60 °C","[7]; 60 °C, 3 weeks",No change in appearance
same,"change in appearance, 90 % RH","[7]; 90 % RH, 3 weeks",Dissolved to transparency
same,"change in appearance, Initial",[7]; initial,No change in appearance
same,amount of total related substances generated (FIG. 13),"[7]; stress temperature/humidity storage, compared to tegoprazan freebase",significantly increased
same,After 1 Month (%) Degradant,[8]; [11],0.518%
same,After 1 Month (%) Total Related substances,[8]; [11],0.727%
same,Change (%) Degradant,"[8]; 40 ± 2 °C / RH 75 ± 5 %, 1 month vs initial",0.396%
same,Initial (%) Total Related substances,"[8]; Table 7, initial",0.265%
same,Initial (%) Degradant,"[8]; Table 7, initial, degradant of Formula 4",0.122%
same,Change in Quality (%) Accelerated (4 weeks) Degradant,[8]; Table 12 summary,0.396%
same,Change in Quality (%) Accelerated (4 weeks) Purity,[8]; Table 12 summary,-0.462%
same,increase in total related substances after 1 month,[8]; accelerated stability,≥ 0.3%
